These results are taken from ChEMBL document CHEMBL3507680, “University of Dundee, Gates Library screen for HepG2 cell viability”.

This series is described as follows: Human HepG2 cell viability assay in 384 well format. It is filed as toxicity, cell-based. Also on record: dose 125 nL, time 70.5 hour; cytotoxicity at 70.5 h: concentration not given beside the values. Particulars: HepG2 cells, read-out: Inhibition.
Regarding `CC(C)COCC(NC(=O)c1ccncc1)c1ccco1` (stereo not drawn), the cytotoxicity at 70.5 h was -4.28%.
Next, `CCN1CCCC(NC(=O)CCn2c(C(F)F)cc3cccnc32)C1` (stereo not drawn): -4.62%; `CC(C)(CNCc1ccc(OCc2cscn2)cc1)C(N)=O`: 2.2%; `COCCN(C)C[C@@H]1CN(C(=O)c2ccc(C)cc2)C[C@@H]1CO`: -9.29%.
As for `O=S1(=O)CCC(N(Cc2nc(-c3ccccn3)no2)Cc2cccs2)C1` (stereo not drawn), the cytotoxicity at 70.5 h was -4.77%.
Take `COCCN1C[C@@H]2[C@@H](OC)CCN(C(=O)c3cccc(OC)c3)[C@@H]2C1`: the cytotoxicity at 70.5 h was found to be 2%.
With `O=C(CCc1ccccc1)N1CCCCC1Cn1cccn1` (stereo not drawn), the cytotoxicity at 70.5 h stood at 11.8%.
For the compound `CN(CCS(=O)(=O)c1cc(Cl)ccc1Cl)CC(=O)Nc1ccc(F)cc1`, the cytotoxicity at 70.5 h is 6.55%.
Next, `Cc1nnc([C@H]2C[C@@H]3CCN(Cc4cc(C)on4)C[C@H]3O2)[nH]1`: -4.17%; `Cc1nccc(N[C@H]2CN(C(=O)CN3CCCC3=O)C[C@@H]2C(C)C)n1`: -19.5%; `Cc1cccc(-c2nc(C)nn2CC(=O)NC(C)C)c1`: 18.6%.
Next, `O=C([C@@H]1CCCO1)N1CCn2c(Cn3cccn3)cnc2C1`: -0.354%; `Cc1ccc(F)cc1S(=O)(=O)Nc1ccc2c(C(=O)O)c[nH]c2c1`: 1.03%; `COCC1CCCN(C(=O)c2ccc(NC(=O)CC(C)C)c(C)c2)C1` (stereo not drawn): -17.4%.
Regarding `c1ccc(-n2nc(CNC3CCc4ncnn4C3)c3c2CCC3)cc1` (stereo not drawn), the cytotoxicity at 70.5 h came to 9.35%.
For `Cc1nc(C2CCCN2CCCc2nc3ccccc3o2)no1` (stereo not drawn), the cytotoxicity at 70.5 h was -1.3%.
As to `CCc1ccc(C(=O)N2CCCN(Cc3csc(CC)n3)CC2)o1`, the cytotoxicity at 70.5 h amounted to 6.45%.
As to `Cc1[nH]ncc1C(=O)N(CC(C)C)CC(O)c1ccc(F)cc1` (stereo not drawn), the cytotoxicity at 70.5 h is 14.2%.
Next, `CC(C)c1nn(C)c(N(C)C)c1CNCC(O)c1ccccc1F` (stereo not drawn): 17.9%; `CNC(=O)CCOC(=O)c1cccc(-n2cccn2)c1`: -10.7%.
For `Cn1cccc1C(=O)N1CCC2(CC1)CCN2S(C)(=O)=O`, the cytotoxicity at 70.5 h is -4.8%.
On to `CCCC(=O)N(CCCN1CCOCC1)c1nc2c(F)cccc2s1`, for which the cytotoxicity at 70.5 h is -1.9%.
The figure for `CCN(CC)C(=O)COc1ccnc2cc(OC)ccc12` is -19.4%.
On to `OCCc1ccccc1-n1ccnc1-c1cn(C2CCNCC2)nn1`, for which the cytotoxicity at 70.5 h turned out to be 27.2%.
Next, `COc1ccccc1N1CC(NC(=O)Cn2cc(C(C)C)nn2)CC1=O` (stereo not drawn): -9.11%.
The figure for `CSc1cccc(NC(C)C(=O)Nc2nccs2)c1` (stereo not drawn) is 6.07%; for `CCN1CCC(CC(=O)N2CCn3cccc3C2c2cccnc2)CC1` (stereo not drawn) it is 28.5%; for `Cc1cc(N2CCN(C(=O)CCc3scnc3C)CC2)nc(N)n1` it is 18.7%.
With `CN1CC(=O)N(c2cccc(F)c2)CC12CCN(Cc1cccnc1)C2` (stereo not drawn), the cytotoxicity at 70.5 h came to 3.06%.
In the case of `CC(C)CNC(=O)C1(Cc2ccccc2-c2ccccc2)CCNC1` (stereo not drawn), the cytotoxicity at 70.5 h was -3.17%.
The figure for `CCc1noc(CN2CCN(C(=O)OC(C)(C)C)C(C)C2)n1` (stereo not drawn) is 2.89%; for `OC(c1ccccc1)C1CCN(Cc2csc(-c3ncccn3)n2)CC1` (stereo not drawn) it is -7.96%.
For the compound `O=C(c1ccco1)N1CCc2c(nc(-c3ccncc3)[nH]c2=O)C1`, the cytotoxicity at 70.5 h came to 13%.
Next, `CC1(C(=O)NCCCOc2ccccc2F)CC(=O)N2C=CC=CC2=N1` (stereo not drawn): 0.00385%; `Cc1ccc(C(CCNCCCN(C)C)C2CCOC(C)(C)C2)cc1` (stereo not drawn): 30.6%.
As for `CC(CO)N1CCN(C(=O)OC(C)(C)C)CC1` (stereo not drawn), the cytotoxicity at 70.5 h is -6.8%.
Next, `CCOCCn1c(=O)n(Cc2ccc(F)cc2)c2ncc(C(=O)O)cc21`: -4.53%; `CC(C)NC(=O)C1(Cc2ccccc2-c2cccs2)CCNC1` (stereo not drawn): -3.31%.
Next, `Cc1cc(C)n(CCCNc2ncnc3c2NC(=O)CN3)n1`: -8.3%.
Next, `O=C(O)C(c1ccc2c(c1)OCCO2)N1CCCCCC1` (stereo not drawn): -7.26%; `CNc1ncc2c(n1)CN(CCc1ccc(F)cc1)C2=O`: -10.4%; `Cc1ccsc1C(CNC(=O)c1cc(=O)c2ccccc2[nH]1)N(C)C` (stereo not drawn): -9.06%.
`CCN1CCN(C[C@@H]2CN(c3ncc(Cl)cc3F)C[C@@H]2CO)CC1`: the cytotoxicity at 70.5 h is -10.9%.
The figure for `Cc1ccc(C(=O)NS(=O)(=O)Cc2ccon2)c(C)c1` is -4.2%; for `O=C(C1CCCCC1)N1C[C@H]2CNC[C@H]2C1` it is -11%.
Regarding `Cc1ncc(S(=O)(=O)N(CC(C)C)c2cccc(O)c2)s1`, the cytotoxicity at 70.5 h is -1.45%.
For the compound `COC(=O)C(NC(=O)CC(C)C)c1cc(F)ccc1F` (stereo not drawn), the cytotoxicity at 70.5 h is -1.44%.
`CN1CCCC1CCn1ccnc1-c1ccc2ccccc2n1` (stereo not drawn): the cytotoxicity at 70.5 h was found to be 1.35%.
As for `CC(C)Nc1n[nH]c2nc(C3CCN(C(=O)c4ccccn4)C3)ccc12` (stereo not drawn), the cytotoxicity at 70.5 h came out at 8.59%.
Next, `O=c1ccc2c(n1CC1CCOCC1)CCN(Cc1ccoc1)CC2`: 49.3%.
The figure for `Cc1cc(CN2CCC(c3nccn3C(C)C)CC2)ccc1F` is 15.8%.
Regarding `COc1ccnc(CN2CCCC(CCc3ccccc3)C2)c1OC` (stereo not drawn), the cytotoxicity at 70.5 h was found to be 3.51%.
As to `CCCNC(=O)C(C)Nc1ccc(COCC)cc1` (stereo not drawn), the cytotoxicity at 70.5 h was -0.943%.
With `O=C(NCc1ccc2c(c1)OCO2)[C@H]1C=CCN1c1ncccn1`, the cytotoxicity at 70.5 h was -4.63%.
As for `Cc1cc(S(=O)(=O)N(CC(N)=O)CC(C)C)ccc1Br`, the cytotoxicity at 70.5 h amounted to 11.4%.
The figure for `CCc1c(C(=O)NC2CCS(=O)(=O)C2)cnn1-c1ccc(C)cc1` (stereo not drawn) is -6.41%.
Consider `COc1ccc(NC(=O)CCn2nc(-c3cccs3)oc2=O)cc1OC`, for which the cytotoxicity at 70.5 h is -5.48%.
The figure for `CC(C)(C)NC(=O)C1CSCN1S(=O)(=O)c1ccccc1F` (stereo not drawn) is -4.62%.
As to `Cc1ccc(CC(=O)N2CCCCC2Cn2cccn2)cn1` (stereo not drawn), the cytotoxicity at 70.5 h is -0.224%.
Next, `CO[C@H]1CCN(Cc2nccs2)C[C@@H]1Cc1ccccc1`: -0.233%.
Next, `O=C(Nc1nc2c(s1)CCC2)NC1CCCC1`: -9.48%; `CC(C(=O)N1CCOCC1)n1nc(-c2cccs2)cc(N)c1=O` (stereo not drawn): 2.02%.
Take `CC(=O)N1CCC2(CC1)CC(C(C)C)=NO2`: the cytotoxicity at 70.5 h was -9.06%.
The figure for `CC1(C(=O)N2CCOCC2)CN(C2CCCCC2)CCO1` (stereo not drawn) is 0.715%; for `CN(C)c1cc(C(=O)N2CCN(S(C)(=O)=O)CC2)ccn1` it is -1%; for `CCC(CO)N(Cc1ccccn1)Cc1ccc(-c2ccn[nH]2)s1` (stereo not drawn) it is -14%.
For the compound `CC(C)(C)n1ncc2c1CCCC2NCc1ccc2c(c1)CCO2` (stereo not drawn), the cytotoxicity at 70.5 h was determined as 9.44%.
As for `O=C(c1ccccn1)N1CCCC(c2nccn2Cc2ccncc2)C1` (stereo not drawn), the cytotoxicity at 70.5 h is -4.69%.
The figure for `CCOC(=O)c1n[nH]cc1-c1cncn1CC(C)n1nc(C)cc1C` (stereo not drawn) is -8.74%; for `Cc1n[nH]cc1CNC1(c2ccc(F)cc2)CCCC1` it is -7.33%.
Next, `C[C@H]1CCCCN1CCCNc1nccc(-c2c[nH][nH]c2=O)n1`: 4.41%.
Regarding `Cc1nnc(CN2CCCC(CCc3ccccc3C(F)(F)F)C2)o1` (stereo not drawn), the cytotoxicity at 70.5 h is -7.48%.
Consider `CC(C)Nc1cc(N2CCN(Cc3ccccc3)C(CCO)C2)ncn1` (stereo not drawn), for which the cytotoxicity at 70.5 h was -1.73%.
Take `CS(=O)(=O)N1Cc2ccccc2CC2(CCN(Cc3ccccn3)C2)C1` (stereo not drawn): the cytotoxicity at 70.5 h is -10.1%.
For `CCC(=O)N1CCC(Cc2cc(Nc3ncccn3)ncn2)CC1`, the cytotoxicity at 70.5 h was -4.23%.
For the compound `CC(C)c1nc2n(n1)CC(Nc1ncnc3c1CCC3)CC2` (stereo not drawn), the cytotoxicity at 70.5 h is -13.9%.
On to `Cc1cccc(S(=O)(=O)N2C[C@H]3C[C@H](C(=O)NC4CCC4)[C@@H](C2)O3)c1`, for which the cytotoxicity at 70.5 h was -10.5%.
As for `COCc1cccc(NC(=O)NCc2ncc(C)c(OC)c2C)c1`, the cytotoxicity at 70.5 h stood at 0.253%.
The figure for `CCN1CC2(CCN(CC3COCCO3)CC2)OC1=O` (stereo not drawn) is 44.4%.
Consider `c1ccc(-n2cc(CN3CCCC3Cn3cncn3)nn2)cc1` (stereo not drawn), for which the cytotoxicity at 70.5 h was -1.22%.
The figure for `CC(C)(C)n1cc(C(=O)N2CCN(Cc3ccccc3F)CC2)cn1` is 5.09%; for `O=C(Cc1cccc(F)c1)NCCNc1ncccn1` it is -4.32%.
Regarding `CSc1ccc(CN(C(=O)c2cc(=O)[nH]c(=O)[nH]2)C2CC2)cc1`, the cytotoxicity at 70.5 h came out at 6.51%.
`Fc1cccc(CN2CCO[C@H]3[C@@H](OCc4ccccn4)CC[C@@H]32)c1`: the cytotoxicity at 70.5 h is -15.5%.
Next, `CN(C)CCOCc1nnc2n1CCN(Cc1ccco1)C2`: -1.46%; `CN(C)c1cccc(C2CCCN2S(N)(=O)=O)c1` (stereo not drawn): -1.57%.
On to `Cc1nnc([C@]23COC[C@H]2CN(Cc2cccs2)C3)o1`, for which the cytotoxicity at 70.5 h is 27.6%.
For the compound `Cc1cn2c(CN(C)C(=O)c3cnc(N)c(Cl)c3)c(C)nc2s1`, the cytotoxicity at 70.5 h stood at 11.9%.
The figure for `CC(=O)N1CCC1c1nc(-c2ccc(C)s2)no1` (stereo not drawn) is 23.5%; for `CCCn1cnc2c1CN(S(=O)(=O)c1ccc(F)cc1)[C@H](C(=O)OC)C2` it is 12.5%.
Next, `CN1CCN(S(=O)(=O)c2ccc(Cl)c(Cl)c2)c2cnccc21`: -0.75%.
The figure for `CC(CO)NC(=O)Nc1ccc(CC#N)cc1` (stereo not drawn) is -4.42%; for `CC(C)Cc1nc(NC(=O)c2cc(-c3cccnc3)n[nH]2)n[nH]1` it is -5.07%.
For `Cc1noc([C@@H]2CCCN2C(=O)C2CCN(CC(N)=O)CC2)n1`, the cytotoxicity at 70.5 h is -5.63%.
In the case of `CN1CCCC(c2cccc(-c3cccc(Cl)c3)n2)C1` (stereo not drawn), the cytotoxicity at 70.5 h came to 18%.
Consider `Cc1nc(CN2CCO[C@H]3[C@H](OCC(=O)N(C)C)CC[C@@H]32)cs1`, for which the cytotoxicity at 70.5 h was 17.3%.
Next, `O=C(NCCN1CCCCC1)C(c1ccccc1)N1CCCC1` (stereo not drawn): 2.81%.
The figure for `CC(C)[C@@H]1CN(c2ncc(F)cn2)C[C@H]1NS(=O)(=O)N(C)C` is 15.6%.
